# The source made the active and inactive calls. The calls are words filed in the database; no cut-off is given here.
# Tests used:
# [1] = molecular target: 5-hydroxytryptamine receptor 1A (Homo sapiens) (UniProt P08908); test: 5-HT1A Eurofins-Cerep binding assay; set-up: ligand concentration 0.5 nM; conditions: Compound concentration 10.0 uM
# [2] = molecular target: 5-hydroxytryptamine receptor 2A (Homo sapiens) (UniProt P28223); test: Agonist activity in the Eurofins Cerep SafetyScreen44 (BI) against 5HT2AH_AGON by Scintillation counting (Cerep_471); conditions: Compound concentration 10.0 uM
# [3] = molecular target: 5-hydroxytryptamine receptor 2B (Homo sapiens) (UniProt P41595); test: 5-HT2B Eurofins-Cerep binding assay; conditions: Compound concentration 10.0 uM
# [4] = molecular target: 5-hydroxytryptamine receptor 3A (Homo sapiens) (UniProt P46098); test: 5-HT3 Eurofins-Cerep binding assay; set-up: ligand concentration 0.5 nM; conditions: Compound concentration 10.0 uM
# [5] = molecular target: Adenosine receptor A2a (Homo sapiens) (UniProt P29274); test: A2A Eurofins-Cerep binding assay; set-up: ligand concentration 6 nM
# [6] = molecular target: Beta-1 adrenergic receptor (Homo sapiens) (UniProt P08588); test: beta 1 Eurofins-Cerep binding assay; set-up: ligand concentration 0.3 nM
# [7] = molecular target: Beta-2 adrenergic receptor (Homo sapiens) (UniProt P07550); test: beta 2 Eurofins-Cerep binding assay
# [8] = organism: Rattus norvegicus; test: Activity against BZD/CENTR/R in the Eurofins Cerep SafetyScreen44 (BI) by Radioactive Assay (Cerep_28); format: protein-complex assay
# [9] = molecular target: T1, Cholecystokinin receptor type A (Homo sapiens) (UniProt P32238); test: CCK1 (CCKA) Eurofins-Cerep binding assay; set-up: ligand concentration 0.08 nM
# T1 sequence (whole entry): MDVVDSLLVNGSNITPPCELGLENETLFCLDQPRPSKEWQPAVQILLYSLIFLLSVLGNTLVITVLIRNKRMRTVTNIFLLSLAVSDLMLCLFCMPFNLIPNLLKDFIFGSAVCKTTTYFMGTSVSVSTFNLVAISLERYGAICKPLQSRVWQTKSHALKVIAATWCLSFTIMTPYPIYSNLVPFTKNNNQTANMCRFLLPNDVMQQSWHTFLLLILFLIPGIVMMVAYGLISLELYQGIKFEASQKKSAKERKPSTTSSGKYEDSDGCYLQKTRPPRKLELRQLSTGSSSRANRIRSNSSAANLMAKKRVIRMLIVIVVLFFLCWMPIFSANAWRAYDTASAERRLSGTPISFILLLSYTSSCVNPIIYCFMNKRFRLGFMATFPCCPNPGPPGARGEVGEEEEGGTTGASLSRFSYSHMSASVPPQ
# [10] = molecular target: D(1A) dopamine receptor (Homo sapiens) (UniProt P21728); test: D1 Eurofins-Cerep binding assay; set-up: ligand concentration 0.3 nM; conditions: Compound concentration 10.0 uM
# [11] = molecular target: D(2) dopamine receptor (Homo sapiens) (UniProt P14416); test: Agonist activity in the Eurofins Cerep SafetyScreen44 (BI) against D2SH_AGON by Scintillation counting (Cerep_1322); conditions: Compound concentration 10.0 uM
# [12] = molecular target: Sodium-dependent dopamine transporter (Homo sapiens) (UniProt Q01959); test: dopamine transporter Eurofins-Cerep binding assay; conditions: Compound concentration 10.0 uM
# [13] = molecular target: Delta-type opioid receptor (Homo sapiens) (UniProt P41143); test: delta (DOP) Eurofins-Cerep binding assay; set-up: ligand concentration 0.5 nM; conditions: Compound concentration 10.0 uM
# [14] = molecular target: Endothelin-1 receptor (Homo sapiens) (UniProt P25101); test: ETA Eurofins-Cerep binding assay; set-up: ligand concentration 0.03 nM; conditions: Compound concentration 10.0 uM
# [15] = molecular target: Glucocorticoid receptor (Homo sapiens) (UniProt P04150); test: GR Eurofins-Cerep binding assay; conditions: Compound concentration 10.0 uM
# [16] = molecular target: Histamine H1 receptor (Homo sapiens) (UniProt P35367); test: H1 Eurofins-Cerep binding assay; set-up: ligand concentration 1 nM; conditions: Compound concentration 10.0 uM
# [17] = molecular target: Histamine H2 receptor (Homo sapiens) (UniProt P25021); test: H2 Eurofins-Cerep binding assay; set-up: ligand concentration 0.075 nM; conditions: Compound concentration 10.0 uM
# [18] = organism: Rattus norvegicus; test: KV channel Eurofins-Cerep binding assay; set-up: ligand concentration 0.01 nM; conditions: Compound concentration 10.0 uM
# [19] = molecular target: Muscarinic acetylcholine receptor M1 (Homo sapiens) (UniProt P11229); test: M1 Eurofins-Cerep binding assay; set-up: ligand concentration 2 nM; conditions: Compound concentration 10.0 uM
# [20] = molecular target: Muscarinic acetylcholine receptor M2 (Homo sapiens) (UniProt P08172); test: M2 Eurofins-Cerep binding assay; set-up: ligand concentration 2 nM; conditions: Compound concentration 10.0 uM
# [21] = molecular target: Muscarinic acetylcholine receptor M3 (Homo sapiens) (UniProt P20309); test: M3 Eurofins-Cerep binding assay; set-up: ligand concentration 0.2 nM; conditions: Compound concentration 10.0 uM
# [22] = molecular target: Mu-type opioid receptor (Homo sapiens) (UniProt P35372); test: mu (MOP) Eurofins-Cerep binding assay; set-up: ligand concentration 0.5 nM; conditions: Compound concentration 10.0 uM
# [23] = molecular target: Sodium-dependent noradrenaline transporter (Homo sapiens) (UniProt P23975); test: norepinephrine transporter Eurofins-Cerep binding assay; set-up: ligand concentration 1 nM; conditions: Compound concentration 10.0 uM
# [24] = molecular target: Vasopressin V1a receptor (Homo sapiens) (UniProt P37288); test: V1a Eurofins-Cerep binding assay; set-up: ligand concentration 0.3 nM; conditions: Compound concentration 10.0 uM
# [25] = molecular target: T2, Neutrophil elastase (Homo sapiens, UniProt P08246); test: ELANE inhibitor assay (human). (Biochemical assay using purified commercial human ELANE and a fluorescent peptide substrate).
# T2 sequence (P08246 whole entry): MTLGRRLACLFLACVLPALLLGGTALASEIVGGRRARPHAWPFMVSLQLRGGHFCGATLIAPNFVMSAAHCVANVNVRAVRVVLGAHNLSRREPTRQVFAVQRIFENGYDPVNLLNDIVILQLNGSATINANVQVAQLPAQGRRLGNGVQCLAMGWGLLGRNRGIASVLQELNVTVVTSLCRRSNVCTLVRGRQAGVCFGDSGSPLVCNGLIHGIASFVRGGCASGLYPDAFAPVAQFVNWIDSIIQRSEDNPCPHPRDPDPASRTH
# [26] = molecular target: Neutrophil elastase (Mus musculus, UniProt Q3UP87); test: ELANE inhibitor assay (mouse)
# [27] = molecular target: T2, Neutrophil elastase; test: Inhibition of zymosan-stimulated ELANE activity in human plasma
# [28] = molecular target: Cathepsin G (Homo sapiens, UniProt P08311); test: CTSG inhibition assay
# [29] = molecular target: Sodium-dependent serotonin transporter (Homo sapiens) (UniProt P31645); test: Activity against 5HTTRANS/H in the Eurofins SafetyScreen44 (BI) by Radioactive Assay (Old_Cerep_4); conditions: Compound concentration 10.0 uM
# [30] = molecular target: B2 bradykinin receptor (Homo sapiens) (UniProt P30411); test: Activity against B2/HUM in the Eurofins SafetyScreen44 (BI) by Radioactive Assay (Old_Cerep_8)
# [31] = molecular target: P2Y purinoceptor 1 (Rattus norvegicus) (UniProt P49651); test: Activity against P2Y/RA in the Eurofins SafetyScreen44 (BI) by Radioactive Assay (Old_Cerep_30); conditions: Compound concentration 10.0 uM
# [32] = molecular target: Pituitary adenylate cyclase-activating polypeptide type I receptor (Homo sapiens) (UniProt P41586); test: Activity against PACAP/HU in the Eurofins SafetyScreen44 (BI) by Radioactive Assay (Old_Cerep_31); conditions: Compound concentration 10.0 uM
# [33] = organism: Homo sapiens; test: sigma (non-selective) Eurofins-Cerep binding assay; format: protein assay; conditions: Compound concentration 10.0 uM
# [34] = molecular target: Tumor necrosis factor receptor superfamily member 1A (Homo sapiens) (UniProt P19438); test: TNF-alpha Eurofins-Cerep binding assay; conditions: Compound concentration 10.0 uM
# [35] = molecular target: Neuropeptide Y receptor type 2 (Homo sapiens) (UniProt P49146); test: Y2 Eurofins-Cerep binding assay; set-up: ligand concentration 0.015 nM; conditions: Compound concentration 10.0 uM
# [36] = molecular target: Caspase-9 (Homo sapiens) (UniProt P55211); conditions: Compound concentration 1.0 uM
# Description: % Enzyme Activity of Caspase 9 in the Reaction Biology protease panel at 10.0 µM
# [37] = molecular target: Kappa-type opioid receptor (Homo sapiens) (UniProt P41145); test: kappa (KOP) Eurofins-Cerep binding assay; conditions: Compound concentration 10.0 uM
# [38] = molecular target: 3',5'-cyclic-AMP phosphodiesterase 4D (Homo sapiens) (UniProt Q08499); test: Inhibitor of PDE4D2 in the Eurofins Cerep SafetyScreen44 (BI) by Scintillation counting (Cerep_4077); conditions: Compound concentration 10.0 uM
# Sequence of Beta-2 adrenergic receptor (Homo sapiens) (P07550 whole entry, looked up): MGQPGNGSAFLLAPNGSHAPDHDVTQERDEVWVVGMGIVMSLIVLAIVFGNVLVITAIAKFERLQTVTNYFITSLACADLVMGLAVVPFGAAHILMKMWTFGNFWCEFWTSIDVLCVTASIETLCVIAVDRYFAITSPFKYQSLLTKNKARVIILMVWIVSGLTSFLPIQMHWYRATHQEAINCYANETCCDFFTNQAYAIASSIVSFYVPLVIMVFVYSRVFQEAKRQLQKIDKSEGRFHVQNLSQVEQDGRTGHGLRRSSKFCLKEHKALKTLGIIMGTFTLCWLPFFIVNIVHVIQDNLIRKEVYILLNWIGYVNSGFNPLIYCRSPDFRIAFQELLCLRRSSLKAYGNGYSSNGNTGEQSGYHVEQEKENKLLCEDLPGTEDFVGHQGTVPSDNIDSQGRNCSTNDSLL
# Sequence of Adenosine receptor A2a (Homo sapiens) (P29274 whole entry): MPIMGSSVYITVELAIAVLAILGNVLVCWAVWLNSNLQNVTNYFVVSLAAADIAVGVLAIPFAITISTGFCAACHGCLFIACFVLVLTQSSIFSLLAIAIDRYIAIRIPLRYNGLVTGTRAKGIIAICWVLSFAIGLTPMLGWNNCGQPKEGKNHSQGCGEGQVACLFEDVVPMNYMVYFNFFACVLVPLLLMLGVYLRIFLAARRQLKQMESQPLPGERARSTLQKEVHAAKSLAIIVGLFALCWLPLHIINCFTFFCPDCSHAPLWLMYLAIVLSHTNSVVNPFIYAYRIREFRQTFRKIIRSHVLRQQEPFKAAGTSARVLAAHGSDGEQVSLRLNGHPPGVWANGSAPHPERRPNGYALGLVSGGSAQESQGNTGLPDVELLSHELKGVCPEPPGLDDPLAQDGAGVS
# Sequence of Beta-1 adrenergic receptor (Homo sapiens) (P08588 whole entry, looked up): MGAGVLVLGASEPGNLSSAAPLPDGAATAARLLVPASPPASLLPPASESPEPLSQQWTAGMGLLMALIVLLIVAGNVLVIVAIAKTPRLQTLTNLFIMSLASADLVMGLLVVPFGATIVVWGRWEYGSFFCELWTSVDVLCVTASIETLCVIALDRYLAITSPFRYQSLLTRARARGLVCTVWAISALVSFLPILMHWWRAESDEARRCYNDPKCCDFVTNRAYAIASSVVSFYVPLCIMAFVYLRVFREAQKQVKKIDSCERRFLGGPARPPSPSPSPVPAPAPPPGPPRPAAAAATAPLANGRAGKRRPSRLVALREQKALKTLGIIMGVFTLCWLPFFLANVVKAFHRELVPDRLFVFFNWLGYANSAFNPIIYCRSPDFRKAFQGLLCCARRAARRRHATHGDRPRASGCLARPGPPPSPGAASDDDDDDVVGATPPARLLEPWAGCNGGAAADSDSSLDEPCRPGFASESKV
# Sequence of Muscarinic acetylcholine receptor M3 (Homo sapiens) (P20309 whole entry, looked up): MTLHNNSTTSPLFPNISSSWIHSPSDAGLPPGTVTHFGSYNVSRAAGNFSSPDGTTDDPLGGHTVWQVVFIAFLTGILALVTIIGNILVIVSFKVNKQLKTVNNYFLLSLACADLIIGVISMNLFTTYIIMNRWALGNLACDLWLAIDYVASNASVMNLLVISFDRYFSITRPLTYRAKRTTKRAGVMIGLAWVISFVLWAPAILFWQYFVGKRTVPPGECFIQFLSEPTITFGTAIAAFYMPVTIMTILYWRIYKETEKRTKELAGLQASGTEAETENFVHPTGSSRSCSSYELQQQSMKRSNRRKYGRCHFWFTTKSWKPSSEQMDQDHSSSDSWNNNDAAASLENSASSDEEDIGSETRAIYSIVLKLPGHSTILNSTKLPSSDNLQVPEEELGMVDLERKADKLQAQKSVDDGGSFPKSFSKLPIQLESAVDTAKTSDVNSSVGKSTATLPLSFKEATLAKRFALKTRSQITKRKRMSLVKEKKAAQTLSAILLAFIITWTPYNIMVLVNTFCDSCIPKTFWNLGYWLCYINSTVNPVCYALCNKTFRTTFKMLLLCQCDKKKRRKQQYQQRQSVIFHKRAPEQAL
# Sequence of Sodium-dependent noradrenaline transporter (Homo sapiens) (P23975 whole entry): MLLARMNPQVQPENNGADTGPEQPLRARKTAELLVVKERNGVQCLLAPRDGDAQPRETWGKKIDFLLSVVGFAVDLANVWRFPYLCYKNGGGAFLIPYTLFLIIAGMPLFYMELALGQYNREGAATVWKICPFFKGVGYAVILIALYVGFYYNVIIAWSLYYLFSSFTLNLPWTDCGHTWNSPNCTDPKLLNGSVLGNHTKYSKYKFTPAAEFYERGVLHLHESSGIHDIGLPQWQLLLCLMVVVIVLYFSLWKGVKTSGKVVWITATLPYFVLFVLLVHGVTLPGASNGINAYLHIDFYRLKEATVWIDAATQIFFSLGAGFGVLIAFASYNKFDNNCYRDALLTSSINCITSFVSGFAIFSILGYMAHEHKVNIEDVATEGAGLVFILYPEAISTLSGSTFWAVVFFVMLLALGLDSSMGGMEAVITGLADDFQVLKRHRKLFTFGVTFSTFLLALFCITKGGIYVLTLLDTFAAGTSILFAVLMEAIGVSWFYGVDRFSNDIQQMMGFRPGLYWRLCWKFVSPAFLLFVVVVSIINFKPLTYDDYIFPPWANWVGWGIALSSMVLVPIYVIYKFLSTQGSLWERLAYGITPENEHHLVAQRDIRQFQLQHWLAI
# Sequence of Caspase-9 (Homo sapiens) (P55211 1-315 limits assumed): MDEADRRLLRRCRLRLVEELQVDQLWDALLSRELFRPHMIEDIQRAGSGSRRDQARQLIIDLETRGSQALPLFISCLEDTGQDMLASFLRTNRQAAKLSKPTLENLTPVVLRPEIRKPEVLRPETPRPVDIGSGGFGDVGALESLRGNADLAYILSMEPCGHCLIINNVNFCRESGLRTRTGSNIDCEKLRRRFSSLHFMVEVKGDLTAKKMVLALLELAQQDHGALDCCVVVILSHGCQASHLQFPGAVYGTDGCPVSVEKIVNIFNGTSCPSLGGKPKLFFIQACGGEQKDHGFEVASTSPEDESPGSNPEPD
# Sequence of Caspase-9 (Homo sapiens) (P55211 331-416 limits assumed): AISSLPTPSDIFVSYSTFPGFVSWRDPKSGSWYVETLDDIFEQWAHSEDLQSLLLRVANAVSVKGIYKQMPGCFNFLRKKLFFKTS
# Sequence of Glucocorticoid receptor (Homo sapiens) (P04150 whole entry): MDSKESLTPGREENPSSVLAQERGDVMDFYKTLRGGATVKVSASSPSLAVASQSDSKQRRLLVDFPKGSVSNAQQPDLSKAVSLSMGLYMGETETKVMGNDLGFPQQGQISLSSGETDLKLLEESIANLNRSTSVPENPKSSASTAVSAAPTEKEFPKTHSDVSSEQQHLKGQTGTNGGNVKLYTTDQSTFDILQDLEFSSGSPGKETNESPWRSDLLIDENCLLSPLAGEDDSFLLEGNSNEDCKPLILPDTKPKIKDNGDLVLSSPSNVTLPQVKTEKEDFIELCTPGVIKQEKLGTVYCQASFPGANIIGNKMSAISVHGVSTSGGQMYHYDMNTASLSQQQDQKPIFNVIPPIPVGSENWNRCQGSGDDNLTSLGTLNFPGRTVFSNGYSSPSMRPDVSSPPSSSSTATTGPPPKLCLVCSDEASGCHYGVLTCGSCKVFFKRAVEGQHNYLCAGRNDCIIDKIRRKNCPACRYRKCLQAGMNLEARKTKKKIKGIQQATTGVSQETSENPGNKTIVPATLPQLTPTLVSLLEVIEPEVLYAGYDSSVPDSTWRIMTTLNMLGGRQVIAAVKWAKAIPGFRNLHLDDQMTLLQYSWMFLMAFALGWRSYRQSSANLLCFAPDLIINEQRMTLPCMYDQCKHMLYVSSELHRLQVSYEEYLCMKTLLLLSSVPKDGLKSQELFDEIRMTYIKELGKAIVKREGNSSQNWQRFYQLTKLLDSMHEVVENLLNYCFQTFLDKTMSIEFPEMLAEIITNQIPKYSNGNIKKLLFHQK
# Sequence of B2 bradykinin receptor (Homo sapiens) (P30411 whole entry): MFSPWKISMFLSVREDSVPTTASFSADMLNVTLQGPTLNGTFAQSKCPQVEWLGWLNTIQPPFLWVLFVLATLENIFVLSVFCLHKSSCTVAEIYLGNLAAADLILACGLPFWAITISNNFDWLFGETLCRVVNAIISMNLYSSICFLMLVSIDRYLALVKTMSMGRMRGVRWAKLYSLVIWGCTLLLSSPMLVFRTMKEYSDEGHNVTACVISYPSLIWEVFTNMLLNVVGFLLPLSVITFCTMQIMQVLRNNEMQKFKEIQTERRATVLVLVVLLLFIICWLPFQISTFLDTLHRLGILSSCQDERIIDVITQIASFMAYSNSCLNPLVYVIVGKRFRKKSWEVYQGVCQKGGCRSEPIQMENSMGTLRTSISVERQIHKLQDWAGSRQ
# Sequence of Muscarinic acetylcholine receptor M1 (Homo sapiens) (P11229 whole entry): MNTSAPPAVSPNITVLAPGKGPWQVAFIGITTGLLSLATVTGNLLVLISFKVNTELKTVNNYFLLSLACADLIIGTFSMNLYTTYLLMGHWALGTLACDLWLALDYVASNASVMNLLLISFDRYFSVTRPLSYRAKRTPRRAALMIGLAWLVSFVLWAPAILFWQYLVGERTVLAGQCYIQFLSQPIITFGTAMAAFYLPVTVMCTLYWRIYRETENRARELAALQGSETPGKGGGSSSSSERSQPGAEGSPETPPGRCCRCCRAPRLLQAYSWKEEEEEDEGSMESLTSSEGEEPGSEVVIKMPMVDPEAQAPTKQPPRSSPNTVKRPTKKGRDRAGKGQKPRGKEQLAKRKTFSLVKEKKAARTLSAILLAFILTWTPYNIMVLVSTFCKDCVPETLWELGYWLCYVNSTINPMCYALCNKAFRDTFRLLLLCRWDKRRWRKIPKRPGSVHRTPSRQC
# Sequence of Delta-type opioid receptor (Homo sapiens) (P41143 whole entry): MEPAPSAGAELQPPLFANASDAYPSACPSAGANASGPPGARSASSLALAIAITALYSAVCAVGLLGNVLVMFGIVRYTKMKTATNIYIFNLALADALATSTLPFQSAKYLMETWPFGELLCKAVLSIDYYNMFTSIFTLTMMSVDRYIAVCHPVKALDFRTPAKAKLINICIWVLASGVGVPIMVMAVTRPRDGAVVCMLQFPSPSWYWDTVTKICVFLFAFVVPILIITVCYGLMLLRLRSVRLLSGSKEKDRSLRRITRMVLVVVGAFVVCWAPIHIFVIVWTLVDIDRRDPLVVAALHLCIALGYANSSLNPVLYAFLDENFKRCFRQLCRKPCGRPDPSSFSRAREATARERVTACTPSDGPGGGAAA
smiles,measurement,setting,value
CC(C)(O)CNC(=O)N1C(=O)N(c2cccc(C(F)(F)F)c2)C2=C(C(=O)CC2)[C@H]1c1ccc(C#N)cc1,residual activity,[1],72%
same,residual activity,[2],69%
same,residual activity,[3],130%
same,residual activity,[4],108%
same,residual activity,[5]; Compound concentration 10.0 uM,100%
same,residual activity,[5]; Compound concentration 30.0 uM,83%
same,residual activity,[6]; Compound concentration 10.0 uM,100%
same,residual activity,[6]; Compound concentration 30.0 uM,100%
same,residual activity,[7]; Compound concentration 10.0 uM,87%
same,residual activity,[7]; Compound concentration 30.0 uM,92%
same,residual activity,[8]; Compound concentration 10.0 uM,119%
same,residual activity,[8]; Compound concentration 30.0 uM,116%
same,residual activity,[9]; Compound concentration 10.0 uM,89%
same,residual activity,[9]; Compound concentration 30.0 uM,89%
same,residual activity,[10],96%
same,residual activity,[11],89%
same,residual activity,[12],110%
same,residual activity,[13],101%
same,residual activity,[14],99%
same,residual activity,[15],107%
same,residual activity,[16],108%
same,residual activity,[17],114%
same,residual activity,[18],102%
same,residual activity,[19],103%
same,residual activity,[20],121%
same,residual activity,[21],84%
same,residual activity,[22],82%
same,residual activity,[23],98%
same,residual activity,[24],102%
same,IC50,[25],0.5 nM (active)
same,IC50,[26],12 nM (active)
same,IC50,[27],1.2 nM (active)
same,IC50,[28],> 10000 nM (not active)
same,residual activity,[29],108%
same,residual activity,[30]; Compound concentration 10.0 uM,107%
same,residual activity,[30]; Compound concentration 30.0 uM,97%
same,residual activity,[31],88%
same,residual activity,[32],122%
same,residual activity,[33],72%
same,residual activity,[34],115%
same,residual activity,[35],113%
same,"% Enzyme Activity (relative to DMSO controls, average n=2)",[36],98.8%
CC(C)(O)CNC(=O)N1C(=O)N(c2cccc(C(F)(F)F)c2)C2=C(C(=O)CC2)[C@@H]1c1ccc(C#N)cc1,residual activity,[37],94%
same,residual activity,[1],91%
same,residual activity,[2],111%
same,residual activity,[3],97%
same,residual activity,[4],81%
same,residual activity,[5]; Compound concentration 10.0 uM,109%
same,residual activity,[6]; Compound concentration 10.0 uM,89%
same,residual activity,[7]; Compound concentration 10.0 uM,101%
same,residual activity,[8]; Compound concentration 10.0 uM,101%
same,residual activity,[9]; Compound concentration 10.0 uM,97%
same,residual activity,[10],100%
same,residual activity,[11],99%
same,residual activity,[12],98%
same,residual activity,[13],100%
same,residual activity,[14],95%
same,residual activity,[15],96%
same,residual activity,[16],101%
same,residual activity,[17],105%
same,residual activity,[18],101%
same,residual activity,[19],114%
same,residual activity,[20],103%
same,residual activity,[21],95%
same,residual activity,[22],104%
same,residual activity,[23],95%
same,residual activity,[38],114%
same,residual activity,[24],99%
same,IC50,[25],41 nM (not active)
same,IC50,[27],492 nM (not active)
same,"% Enzyme Activity (relative to DMSO controls, average n=2)",[36],92.6%

# Source: ChEMBL document CHEMBL5463722, “Data for DCP probe BI-5524” (2023)
